Patent US20230346770A1 (priority 2020, published 2023)
In brackets after ≈: the same amount, converted by molar mass. Where two headings read alike, the source gives them in different places.

Tests used:
[1] = Phase 1 crossover drug-drug interaction study, plasma pharmacokinetics in healthy adults; details: for time of peak of mean plasma concentration / pre-dose mean plasma concentration: Treatment B; for time of peak of mean plasma concentration: Day 5, in combination with bedaquiline; for pre-dose mean plasma concentration: Day 5 morning
[2] = 8-week bedaquiline regimen in MDR-TB patients, Diacon et al. 2012; cited from earlier work
[3] = human, in vivo
[4] = updated model from the present study; clarithromycin coadministration
M. bovis = details: n=1; cited from earlier work
[5] = test system: M. avium/M. intracellulare (MAC); details: n=7; cited from earlier work
M. kansasii = details: n=1; cited from earlier work
M. marinum = details: n=1; cited from earlier work
M. fortuitum = details: n=5; cited from earlier work
M. abscessus = details: cited from earlier work
M. smegmatis = details: n=7; cited from earlier work
M. ulcerans = details: cited from earlier work
[6] = test system: other mycobacterial species; details: generally, other mycobacterial species incl. M. avium, M. abscessus, M. fortuitum, M. marinum; cited from earlier work
clinical = details: human, in vivo
[7] = human; cited from earlier work
[8] = in vivo; cited from earlier work
[9] = in vivo; cited from earlier work; remark: listed apart in the source
[10] = Treatment B Day 5: bedaquiline 100 mg + clarithromycin 500 mg every 12 hours, n=16

CO[C@]1(C)C[C@@H](C)C(=O)[C@H](C)[C@@H](O)[C@](C)(O)[C@@H](C(C)O)OC(=O)[C@H](C)[C@@H](O[C@H]2C[C@@](C)(OC)[C@@H](O)[C@H](C)O2)[C@H](C)[C@H]1O[C@@H]1O[C@H](C)C[C@H](N(C)C)[C@H]1O (stereo partly drawn) [14-OH-Clarithromycin, 14-OH-clarithromycin]
AUC12 h (mean) [1, 10]: 10849 ng·h/mL | Cmax (mean) [1, 10]: 1,152 ng/mL | Cmin (mean) [1, 10]: 636 ng/mL | tmax (median) [1, 10]: 2.00 h | time of peak of mean plasma concentration [1]: 3 hours post-dose | pre-dose mean plasma concentration [1]: 797 ng/mL

CC[C@H]1OC(=O)[C@H](C)[C@@H](O[C@H]2C[C@@](C)(OC)[C@@H](O)[C@H](C)O2)[C@H](C)[C@@H](O[C@@H]2O[C@H](C)C[C@H](N(C)C)[C@H]2O)[C@](C)(OC)C[C@@H](C)C(=O)[C@H](C)[C@@H](O)[C@]1(C)O [Clarithromycin, clarithromycin, reference compound]
time of peak of mean plasma concentration [1]: 3 hours post-dose | pre-dose mean plasma concentration [1]: 1,281 ng/mL | AUC(0-t) ([1]; human, plasma, oral, AUC12 h (mean), Treatment B Day 5: bedaquiline 100 mg + clarithromycin 500 mg every 12 hours, n=16): 22900 ng·h/mL | Cmax ([1]; human, plasma, oral, Cmax (mean), Treatment B Day 5: bedaquiline 100 mg + clarithromycin 500 mg every 12 hours, n=16): 2970 ng/mL | Tmax ([1]; human, plasma, oral, tmax (median), Treatment B Day 5: bedaquiline 100 mg + clarithromycin 500 mg every 12 hours, n=16): 3 h

CNCC[C@@](O)(c1cccc2ccccc12)[C@H](c1ccccc1)c1cc2cc(Br)ccc2nc1OC [M2]
mean terminal elimination half-life [2]: 159 days

COc1nc2ccc(Br)cc2cc1[C@@H](c1ccccc1)[C@@](O)(CCN(C)C)c1cccc2ccccc12 [Bedaquiline, (1R,2S)-1-(6-bromo-2-methoxyquinolin-3-yl)-4-(dimethylamino)-2-naphthalen-1-yl-1-phenylbutan-2-ol]
AUC72h higher in Period 2 compared with Period 1 [3]: 5-6% | AUC240h higher in Period 2 compared with Period 1 [3]: 8-18% | increase of AUC72h with clarithromycin co-administration [3]: 12% | increase of AUC240h (mean plasma exposure) with clarithromycin co-administration [3]: 14% | plasma concentration quantifiable until [3]: 240 hours post-dose | tmax (median) [3]: 3.48 h | Cmax (mean) ([3]; 100 mg): 1287 ng/mL | Effect CLR on CL/F, Estimate (RSE, %) [4]: −0.37 (11) | Bedaquiline MIC Median (M. bovis): 3 ng/mL | Bedaquiline MIC Median [5]: 0.010 µg/mL | Bedaquiline MIC range [5]: 7 to 10 ng/mL | Bedaquiline MIC Median (M. kansasii): 3 ng/mL | Bedaquiline MIC Median (M. marinum): 3 ng/mL | Bedaquiline MIC Median (M. fortuitum): 0.010 µg/mL | Bedaquiline MIC range (M. fortuitum): 7 to 10 ng/mL | MIC (M. abscessus; 1 isolate of M. abscessus): 0.25 µg/mL (≈ 0.45 µM) | Bedaquiline MIC Median (M. abscessus; n=1): 0.250 µg/mL | Bedaquiline MIC Median (M. smegmatis): 7 ng/mL | Bedaquiline MIC range (M. smegmatis): 3 to 100 ng/mL | MIC (M. ulcerans; 1 isolate of M ulcerans): 0.50 µg/mL (≈ 0.9 µM) | Bedaquiline MIC Median (M. ulcerans; n=1): 0.500 µg/mL | MICs [6]: < 0.1 µg/mL | Cmax (clinical; 100 mg, Cmax (mean)): 1390 ng/mL | AUC(0-t) (clinical; AUC72 h (mean)): 13900 ng·h/mL | AUC(0-t) (clinical; AUC240 h (mean)): 17600 ng·h/mL | Tmax (clinical; tmax (median)): 5 h | Increase in CL for healthy volunteers or C202, Estimate [7]: 37.5% | terminal elimination half-life [8]: 5.5 months | time within which Cmax was reached after drug administration [8]: 4 to 6 h | improvement of bioavailability when administered with food [9]: approximately 2 fold
